As usually defined, the IC50 is the concentration at which inhibition is half-maximal.

The text below walks through data of ChEMBL document CHEMBL5055665, “Discovery of the Triazolo[1,5-a]Pyrimidine-Based Derivative WS-898 as a Highly Efficacious and Orally Bioavailable ABCB1 Inhibitor Capable of Overcoming Multidrug Resistance” (J Med Chem, 2021).

In data set [1] the test system is SW-620. As to the kind of experiment: Antitumor activity against human SW-620/AD300 cells xenografted in BALB/c nude mouse assessed as tumor growth inhibition at 5 mg/kg, iv administered once ever 3 days for 21 days. Format: functional. Further details: scale not given: the % may be the effect or the level left. Background: A xenograft is tissue or cells of one species grown in another, often human tumour cells in immunodeficient mice.

The subject of data set [2] is Mus musculus. As to the kind of experiment: Toxicity in BALB/c mouse xenografted with human SW-620/AD300 cells assessed as mortality at 5 mg/kg, iv administered once every 3 days. Format: organism-based. The conditions noted are these: in vivo, 72 h, time 3 day.
Data set [3] deals with Mus musculus. As to the kind of experiment: Toxicity in BALB/c mouse xenografted with human SW-620/AD300 cells assessed as change in body weight at 5 mg/kg, iv administered once every 3 days. The conditions noted are these: in vivo, 72 h, time 3 day. Type of data set: organism-based.
The test system of data set [4] is HEK293. As to the kind of experiment: Reversal of resistance to paclitaxel-induced cytotoxicity in human HEK293/ABCB1 cells assessed as reduction in paclitaxel IC50 at 4 uM preincubated for 4 hrs followed by paclitaxel addition and measured after 72 hrs by MTT assay (reference value: 91.40 +/- 23.32 nM). Format: functional, cell-based. A general note: Tetrazolium assays rely on reduction of a dye to a coloured formazan, in cell work by metabolically active cells.

For data set [5], the system named is KB-C2. The data set is described as follows: Reversal of resistance to paclitaxel-induced cytotoxicity in human KB-C2 cells assessed as reduction in paclitaxel IC50 at 4 uM preincubated for 4 hrs followed by paclitaxel addition and measured after 72 hrs by MTT assay (reference value: 1886.37 +/- 243.05 nM). Format: functional, cell-based.
Data set [6] deals with SW-620. As to the kind of experiment: cells. The conditions noted are these: Homo sapiens.
Data set [7] concerns SW-620. As to the kind of experiment: cells. The conditions noted are these: Homo sapiens. The source holds these as a separate data set.
Data set [8] deals with KB 3-1. The data set is described as follows: Reversal of resistance to paclitaxel-induced cytotoxicity in human KB 3-1 cells assessed as reduction in paclitaxel IC50 at 4 uM preincubated for 4 hrs followed by paclitaxel addition and measured after 72 hrs by MTT assay (reference value: 4.54 +/- 1.59 nM). Type of data set: functional, cell-based.
In data set [9] the test system is HEK293. As to the kind of experiment: Reversal of resistance to paclitaxel-induced cytotoxicity in human HEK293/pcDNA3.1 cells assessed as reduction in paclitaxel IC50 at 4 uM preincubated for 4 hrs followed by paclitaxel addition and measured after 72 hrs by MTT assay (reference value: 1.93 +/- 0.06 nM). Format: functional, cell-based.
The subject of data set [10] is SW-620. As to the kind of experiment: Reversal of resistance to paclitaxel-induced cytotoxicity in human SW-620/AD300 cells assessed as reversal fold at 8 uM preincubated for 4 hrs followed by paclitaxel addition and measured after 72 hrs by MTT assay relative to paclitaxel. Type of data set: functional. The conditions noted are these: time 76 hrs.
The subject of data set [11] is SW-620. The data set is described as follows: Reversal of resistance to paclitaxel-induced cytotoxicity in human SW-620/AD300 cells assessed as reduction in paclitaxel IC50 at 8 uM preincubated for 4 hrs followed by paclitaxel addition and measured after 72 hrs by MTT assay (reference value: 4.23 +/- 0.50 uM). Type of data set: functional, cell-based.
The test system of data set [12] is SW-620. As to the kind of experiment: Reversal of resistance to paclitaxel-induced cytotoxicity in human SW-620/AD300 cells assessed as reduction in paclitaxel IC50 at 6 uM preincubated for 4 hrs followed by paclitaxel addition and measured after 72 hrs by MTT assay (reference value: 4.23 +/- 0.50 uM). Format: functional, cell-based.
Data set [13] concerns SW-620. As to the kind of experiment: Reversal of resistance to paclitaxel-induced cytotoxicity in human SW-620/AD300 cells assessed as reversal fold at 6 uM preincubated for 4 hrs followed by paclitaxel addition and measured after 72 hrs by MTT assay relative to paclitaxel. Format: functional. The conditions noted are these: time 76 hrs.
In data set [14] the test system is SW-620. As to the kind of experiment: Reversal of resistance to paclitaxel-induced cytotoxicity in human SW-620/AD300 cells assessed as reversal fold at 20 uM preincubated for 4 hrs followed by paclitaxel addition and measured after 72 hrs by MTT assay relative to paclitaxel. Type of data set: functional. The conditions noted are these: time 76 hrs.
Data set [15] deals with SW-620. As to the kind of experiment: Reversal of resistance to paclitaxel-induced cytotoxicity in human SW-620/AD300 cells assessed as reduction in paclitaxel IC50 at 20 uM preincubated for 4 hrs followed by paclitaxel addition and measured after 72 hrs by MTT assay (reference value: 4.23 +/- 0.50 uM). Type of data set: functional, cell-based.

Turning to `CC(=O)O[C@H]1C(=O)[C@@]2(C)[C@H]([C@H](OC(=O)c3ccccc3)[C@]3(O)C[C@H](OC(=O)[C@H](O)[C@@H](NC(=O)c4ccccc4)c4ccccc4)C(C)=C1C3(C)C)[C@]1(OC(C)=O)CO[C@@H]1C[C@@H]2O` [PACLITAXEL], the figures for the Activity in data set [1], in data set [2] and in data set [3] were 32%, “Non-Toxic” and “Non-Toxic”, respectively.

Consider `COc1ccc(CCN(C)CCCC(C#N)(c2ccc(OC)c(OC)c2)C(C)C)cc1OC` (stereo not given), for which the IC50 in data set [4] came out at 10400 nM; in data set [5] it was 7.05 nM; in data set [6], 7.11 nM; in [7] it was 300 nM; in data set [8], 3.84 nM; in data set [9], 1.62 nM.

Turning to `O=C(/C=C/c1ccc2ccccc2c1)c1ccc(Nc2c3c(nc4ncnn24)CCC3)cc1`, in [10], the “fold change (FC)” value was found to be 4.03. Also, the IC50 in data set [11] is 1050 nM.

Turning to `Cc1cc(Nc2ccc(C(=O)/C=C/c3ccc4ccccc4c3)cc2)n2nc(SCCc3ccccc3)nc2n1`, the IC50 in data set [12] was determined as 670 nM. In addition, the “fold change (FC)” value in [13] is given as 6.31.

Turning to `CC(=O)c1ccc(Nc2cc(C)nc3nc(SCc4nc5ccccc5[nH]4)nn23)cc1`, the “fold change (FC)” value in data set [14] worked out at 2.6. In data set [15], the IC50 was 1630 nM.
